# Experimental data from patent US10167262B2, “Herbicidal substituted 3-arylpyrazoles” (FMC CORPORATION, priority 2014, dated 2019).
# Legend:
# Type in all cases: in vivo
# [1] = tested on: sedge, umbrella (small-flower umbrella sedge, Cyperus difformis); test: Test B flooded paddy test, plant response rating 0-100; conditions: Flood, 250 g ai/ha; scale 0 to 100 (0 no effect, 100 complete control); 13 to 15 days
# Excerpt: (§1) At time of treatment, test pots were flooded to 3 cm above the soil surface, treated by application of test compounds directly to the paddy water, and then maintained at that water depth for the duration of the test. Treated plants and controls were maintained in a greenhouse for 13 to 15 days, after which time all species were compared to controls and visually evaluated. […] A dash (-) response means no test result.
# [2] = tested on: ducksalad (Heteranthera limosa); test: as above; conditions: Flood, 250 g ai/ha; scale 0 to 100 (0 no effect, 100 complete control); 13 to 15 days
# Excerpt: as §1
# [3] = tested on: barnyardgrass (Echinochloa crus-galli); test: as above; conditions: Flood, 250 g ai/ha; scale 0 to 100 (0 no effect, 100 complete control); 13 to 15 days
# Excerpt: as §1
# [4] = tested on: rice (Oryza sativa); test: as above; conditions: Flood, 250 g ai/ha; scale 0 to 100 (0 no effect, 100 complete control); 13 to 15 days
# Excerpt: as §1
# [5] = tested on: large (Lg) crabgrass (Digitaria sanguinalis); test: Test A pre-/postemergence greenhouse herbicide test, visual injury rating 0-100
# In short: (§2)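 Visual injury scored on a 0–100 scale versus untreated controls roughly 10 days after treatment in greenhouse. Treatments were preemergence soil sprays plus postemergence sprays to plants 2–10 cm tall at one- to two-leaf stage, in a surfactant-containing solvent formulation.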
# [6] = tested on: corn (Zea mays); test: as above
# In short: as §2
# [7] = tested on: giant foxtail (Setaria faberii); test: as above
# In short: as §2
# [8] = tested on: wheat (Triticum aestivum); test: as above
# In short: as §2
# [9] = tested on: morningglory (Ipomoea spp.); test: as above
# In short: as §2
# [10] = tested on: pigweed (Amaranthus retroflexus); test: as above
# In short: as §2
# [11] = tested on: barnyardgrass (Echinochloa crus-galli); test: as above
# In short: as §2
# [12] = tested on: velvetleaf (Abutilon theophrasti); test: as above
# In short: as §2
SMILES,"Plant response rating, Sedge, Umbrella [1]","Plant response rating, Ducksalad [2]","Plant response rating, Barnyardgrass [3]","Plant response rating, Rice [4]","Plant response rating (0 to 100 scale), Crabgrass, Large ([5]; Postemergence, 125 g ai/ha)","Plant response rating (0 to 100 scale), Crabgrass, Large ([5]; Postemergence, 500 g ai/ha)","Crabgrass, Large plant response rating (0 = no effect, 100 = complete control) ([5]; Preemergence, 125 g ai/ha)","Plant response rating (0 to 100 scale), Crabgrass, Large ([5]; Preemergence, 500 g ai/ha)","Corn plant response rating (0 = no effect, 100 = complete control) ([6]; Preemergence, 125 g ai/ha)","Plant response rating (0 to 100 scale), Corn ([6]; Preemergence, 500 g ai/ha)","Plant response rating (0 to 100 scale), Foxtail, Giant ([7]; Postemergence, 125 g ai/ha)","Plant response rating (0 to 100 scale), Foxtail, Giant ([7]; Postemergence, 500 g ai/ha)","Foxtail, Giant plant response rating (0 = no effect, 100 = complete control) ([7]; Preemergence, 125 g ai/ha)","Plant response rating (0 to 100 scale), Foxtail, Giant ([7]; Preemergence, 500 g ai/ha)","Plant response rating (0 to 100 scale), Wheat ([8]; Postemergence, 125 g ai/ha)","Plant response rating (0 to 100 scale), Wheat ([8]; Postemergence, 500 g ai/ha)","Wheat plant response rating (0 = no effect, 100 = complete control) ([8]; Preemergence, 125 g ai/ha)","Plant response rating (0 to 100 scale), Wheat ([8]; Preemergence, 500 g ai/ha)","Plant response rating (0 to 100 scale), Morningglory ([9]; Postemergence, 125 g ai/ha)","Plant response rating (0 to 100 scale), Morningglory ([9]; Postemergence, 500 g ai/ha)",other results
O=C(c1ccccc1)c1cn(C(=O)Cc2ccccc2)nc1-c1cc(Cl)cc(Cl)c1 [Compound 4],0,0,0,0,0,0,0,20,0,0,0,10,0,30,0,0,0,0,0,0,"Plant response rating (0 to 100 scale), Corn ([6]; Postemergence, 125 g ai/ha): 0; Plant response rating (0 to 100 scale), Corn ([6]; Postemergence, 500 g ai/ha): 0; Morningglory plant response rating (0 = no effect, 100 = complete control) ([9]; Preemergence, 125 g ai/ha): 0; Plant response rating (0 to 100 scale), Morningglory ([9]; Preemergence, 500 g ai/ha): 0; Plant response rating (0 to 100 scale), Pigweed ([10]; Postemergence, 125 g ai/ha): 70; Plant response rating (0 to 100 scale), Pigweed ([10]; Postemergence, 500 g ai/ha): 80; Pigweed plant response rating (0 = no effect, 100 = complete control) ([10]; Preemergence, 125 g ai/ha): 80; Plant response rating (0 to 100 scale), Pigweed ([10]; Preemergence, 500 g ai/ha): 90; Plant response rating (0 to 100 scale), Barnyardgrass ([11]; Postemergence, 125 g ai/ha): 0; Plant response rating (0 to 100 scale), Barnyardgrass ([11]; Postemergence, 500 g ai/ha): 0; Barnyardgrass plant response rating (0 = no effect, 100 = complete control) ([11]; Preemergence, 125 g ai/ha): 0; Plant response rating (0 to 100 scale), Barnyardgrass ([11]; Preemergence, 500 g ai/ha): 0; Plant response rating (0 to 100 scale), Velvetleaf ([12]; Postemergence, 125 g ai/ha): 80; Plant response rating (0 to 100 scale), Velvetleaf ([12]; Postemergence, 500 g ai/ha): 90; Velvetleaf plant response rating (0 = no effect, 100 = complete control) ([12]; Preemergence, 125 g ai/ha): 70; Plant response rating (0 to 100 scale), Velvetleaf ([12]; Preemergence, 500 g ai/ha): 90"
ON=C(c1cccnc1)c1c[nH]nc1-c1cc(Cl)cc(Cl)c1 [Compound 5],0,0,0,0,0,0,0,0,0,0,0,0,0,0,0,0,0,0,0,0,"Morningglory plant response rating (0 = no effect, 100 = complete control) ([9]; Preemergence, 125 g ai/ha): 0; Plant response rating (0 to 100 scale), Morningglory ([9]; Preemergence, 500 g ai/ha): 0; Plant response rating (0 to 100 scale), Pigweed ([10]; Postemergence, 125 g ai/ha): 0; Plant response rating (0 to 100 scale), Pigweed ([10]; Postemergence, 500 g ai/ha): 0; Pigweed plant response rating (0 = no effect, 100 = complete control) ([10]; Preemergence, 125 g ai/ha): 0; Plant response rating (0 to 100 scale), Pigweed ([10]; Preemergence, 500 g ai/ha): 20; Plant response rating (0 to 100 scale), Barnyardgrass ([11]; Postemergence, 125 g ai/ha): 0; Plant response rating (0 to 100 scale), Barnyardgrass ([11]; Postemergence, 500 g ai/ha): 0; Barnyardgrass plant response rating (0 = no effect, 100 = complete control) ([11]; Preemergence, 125 g ai/ha): 0; Plant response rating (0 to 100 scale), Barnyardgrass ([11]; Preemergence, 500 g ai/ha): 0; Plant response rating (0 to 100 scale), Velvetleaf ([12]; Postemergence, 125 g ai/ha): 0; Plant response rating (0 to 100 scale), Velvetleaf ([12]; Postemergence, 500 g ai/ha): 0; Velvetleaf plant response rating (0 = no effect, 100 = complete control) ([12]; Preemergence, 125 g ai/ha): 0; Plant response rating (0 to 100 scale), Velvetleaf ([12]; Preemergence, 500 g ai/ha): 0"
Cn1cc(C(=O)c2cccnc2)c(-c2cc(Cl)cc(Cl)c2)n1 [Compound 6],0,0,0,0,0,0,0,0,0,0,0,0,0,0,0,0,0,0,0,0,"Plant response rating (0 to 100 scale), Corn ([6]; Postemergence, 125 g ai/ha): 0; Plant response rating (0 to 100 scale), Corn ([6]; Postemergence, 500 g ai/ha): 0; Morningglory plant response rating (0 = no effect, 100 = complete control) ([9]; Preemergence, 125 g ai/ha): 0; Plant response rating (0 to 100 scale), Morningglory ([9]; Preemergence, 500 g ai/ha): 0; Plant response rating (0 to 100 scale), Pigweed ([10]; Postemergence, 125 g ai/ha): 0; Plant response rating (0 to 100 scale), Pigweed ([10]; Postemergence, 500 g ai/ha): 30; Pigweed plant response rating (0 = no effect, 100 = complete control) ([10]; Preemergence, 125 g ai/ha): 0; Plant response rating (0 to 100 scale), Pigweed ([10]; Preemergence, 500 g ai/ha): 20; Plant response rating (0 to 100 scale), Barnyardgrass ([11]; Postemergence, 125 g ai/ha): 0; Plant response rating (0 to 100 scale), Barnyardgrass ([11]; Postemergence, 500 g ai/ha): 0; Barnyardgrass plant response rating (0 = no effect, 100 = complete control) ([11]; Preemergence, 125 g ai/ha): 0; Plant response rating (0 to 100 scale), Barnyardgrass ([11]; Preemergence, 500 g ai/ha): 0; Plant response rating (0 to 100 scale), Velvetleaf ([12]; Postemergence, 125 g ai/ha): 10; Plant response rating (0 to 100 scale), Velvetleaf ([12]; Postemergence, 500 g ai/ha): 10; Velvetleaf plant response rating (0 = no effect, 100 = complete control) ([12]; Preemergence, 125 g ai/ha): 0; Plant response rating (0 to 100 scale), Velvetleaf ([12]; Preemergence, 500 g ai/ha): 20"
